This is an account of results in patent US20250144094A1 (Erasca, Inc., priority 2021, published 2025).

pIC50: −log10 of the molar value.

Chain of Recombinant human ULK1 (1-649) (O75385 1-649): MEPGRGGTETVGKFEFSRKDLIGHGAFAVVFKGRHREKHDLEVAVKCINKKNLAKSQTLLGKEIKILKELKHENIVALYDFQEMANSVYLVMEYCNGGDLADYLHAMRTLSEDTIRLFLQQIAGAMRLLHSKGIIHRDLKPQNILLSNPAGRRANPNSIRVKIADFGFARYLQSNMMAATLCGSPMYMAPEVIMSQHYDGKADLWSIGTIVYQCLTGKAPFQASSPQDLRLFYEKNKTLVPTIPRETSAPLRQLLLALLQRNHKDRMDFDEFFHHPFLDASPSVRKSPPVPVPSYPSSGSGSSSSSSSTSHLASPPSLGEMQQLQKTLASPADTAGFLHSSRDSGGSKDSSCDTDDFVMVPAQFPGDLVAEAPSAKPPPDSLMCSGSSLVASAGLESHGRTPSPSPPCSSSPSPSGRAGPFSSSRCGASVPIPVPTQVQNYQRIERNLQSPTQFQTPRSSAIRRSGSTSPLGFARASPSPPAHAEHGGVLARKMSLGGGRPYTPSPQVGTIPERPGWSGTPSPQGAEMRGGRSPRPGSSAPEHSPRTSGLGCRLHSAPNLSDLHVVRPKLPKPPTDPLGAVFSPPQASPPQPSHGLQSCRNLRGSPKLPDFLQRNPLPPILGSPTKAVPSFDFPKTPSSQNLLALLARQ

The target in this test is Recombinant human ULK1 (1-649) (Homo sapiens (Human), UniProt O75385). Briefly: ULK1 ADP Glo kinase activity assay (MBP substrate). The note with it: 25° C., 40 minutes, read-out: ULK1 biochemical IC50. As for the experimental part:
Recombinant human ULK1 (1-649) protein expressed in Sf9 insect cells was obtained from SignalChem (Vancouver, BC), catalog #U01-11G. Active kinase was purified via N-terminal GST tag to >85% purity.
ADP GLO Kinase Assay Reagents were obtained from Promega Corp (Madison, WI), catalog #V9104.
MBP (myelin basic protein) substrate, bovine, purified, was obtained from Sigma (St. Louis, MO), catalog #M1891.
ULK1 inhibitor potency was determined using the luminescent ADP Glo Kinase Assay (Promega), a universal ADP detection system that measures kinase activity by quantifying the amount of ADP produced during a kinase reaction. ULK1 kinase reactions are performed in a standard 96-well microplate (20 uL reaction volume) at 25° C. for 40 minutes in the presence or absence of the test compound (12-point dilution series starting at 10 uM). Addition of MBP substrate and ATP initiates the kinase reaction.
The standard ADP Glo assay is performed in two steps. In step one, following the kinase reaction, an equal volume of ADP-Glo™ Reagent (20 uL) is added to terminate the kinase reaction and deplete the remaining ATP. In the second step, the Kinase Detection Reagent (10 uL) is added to simultaneously convert ADP to ATP and allow the newly synthesized ATP to be measured using a luciferase/luciferin reaction. Step two of the ADP Glo assay is performed in a white 384-well plate (20 uL final volume). Thirty minutes after the addition of the Detection reagent, light generated from the luciferase reaction is measured (1 second exposure) using a microplate compatible luminometer (CLARIOstar, BMG Labtech).
Inhibition of ULK1 kinase activity is determined for each test compound by comparison to DMSO only control wells. Inhibitor IC50 was calculated by plotting the change in luminescence after 30 minutes (response) versus inhibitor concentration (in log molar) then applying the four-parameter variable slope curve fit (GraphPad Prism). Inhibition of ULK1 in biochemical assay is found in Table 3.
With `COCCN1CCCc2sc(-c3nc(Nc4cc5c(cc4Cl)CNCC5)ncc3C(F)(F)F)cc2C1=O` [Example 41, 2-(2-((7-chloro-1,2,3,4-tetrahydroisoquinolin-6-yl)amino)-5-(trifluoromethyl)pyrimidin-4-yl)-5-(2-methoxyethyl)-5,6,7,8-tetrahydro-4H-thieno[3,2-c]azepin-4-one], the pIC50 is 7.30 to 8.00.

Regarding `CN1C(=O)c2cc(-c3nc(Nc4cc5c(cc4Cl)CNCC5)ncc3C(F)(F)F)sc2C1(C)C` [Example 42, 2-(2-((7-chloro-1,2,3,4-tetrahydroisoquinolin-6-yl)amino)-5-(trifluoromethyl)pyrimidin-4-yl)-5,6,6-trimethyl-5,6-dihydro-4H-thieno[2,3-c]pyrrol-4-one], the pIC50 was at least 8.00.

Consider `O=C1NCCc2sc(-c3nc(Nc4cc5c(cc4F)CNCC5)ncc3C(F)(F)F)cc21` [Example 43, 2-(2-((7-fluoro-1,2,3,4-tetrahydroisoquinolin-6-yl)amino)-5-(trifluoromethyl)pyrimidin-4-yl)-6,7-dihydrothieno[3,2-c]pyridin-4(5H)-one], for which the pIC50 is at least 8.00.

Regarding `CS(=O)(=O)N1CCc2sc(-c3nc(Nc4cc5c(cc4Cl)CNCC5)ncc3C(F)(F)F)cc2C1=O` [Example 44, 2-(2-((7-chloro-1,2,3,4-tetrahydroisoquinolin-6-yl)amino)-5-(trifluoromethyl)pyrimidin-4-yl)-5-(methylsulfonyl)-6,7-dihydrothieno[3,2-c]pyridin-4(5H)-one], the pIC50 was at least 8.00.

On to `Cc1sc(-c2nc(Nc3cc4c(cc3Cl)CNCC4)ncc2C(F)(F)F)cc1C(N)=O` [Example 45, 5-(2-((7-chloro-1,2,3,4-tetrahydroisoquinolin-6-yl)amino)-5-(trifluoromethyl)pyrimidin-4-yl)-2-methylthiophene-3-carboxamide], for which the pIC50 is at least 8.00.

Regarding `O=C1NCCCc2sc(-c3nc(Nc4cc5c(cc4Cl)CCNC5)ncc3C(F)(F)F)cc21` [Example 46, 2-(2-((6-chloro-1,2,3,4-tetrahydroisoquinolin-7-yl)amino)-5-(trifluoromethyl)pyrimidin-4-yl)-5,6,7,8-tetrahydro-4H-thieno[3,2-c]azepin-4-one], the pIC50 is at least 8.00.

Regarding `CN1CCCc2sc(-c3nc(Nc4cc5c(cc4Cl)CNCC5)ncc3C(F)(F)F)cc2C1=O` [Example 47, 2-(2-((7-chloro-1,2,3,4-tetrahydroisoquinolin-6-yl)amino)-5-(trifluoromethyl)pyrimidin-4-yl)-5-methyl-5,6,7,8-tetrahydro-4H-thieno[3,2-c]azepin-4-one], the pIC50 is at least 8.00.

`CN1CCC(n2cc(Nc3ncc(C(F)(F)F)c(-c4cc5c(s4)CCNC5=O)n3)c(C3CC3)n2)CC1` [Example 48, 2-(2-((3-cyclopropyl-1-(1-methylpiperidin-4-yl)-1H-pyrazol-4-yl)amino)-5-(trifluoromethyl)pyrimidin-4-yl)-6,7-dihydrothieno[3,2-c]pyridin-4(5H)-one]: the pIC50 is at least 8.00.

As to `CN1CCc2cc(Cl)c(Nc3ncc(C(F)(F)F)c(-c4cc5c(s4)CCCNC5=O)n3)cc2C1` [Example 49, 2-(2-((6-chloro-2-methyl-1,2,3,4-tetrahydroisoquinolin-7-yl)amino)-5-(trifluoromethyl)pyrimidin-4-yl)-5,6,7,8-tetrahydro-4H-thieno[3,2-c]azepin-4-one], the pIC50 is at least 8.00.

For the compound `Cc1nc(=O)c2cc(-c3nc(Nc4cc5c(cc4Cl)CNCC5)ncc3C(F)(F)F)sc2[nH]1` [Example 50, 6-(2-((7-chloro-1,2,3,4-tetrahydroisoquinolin-6-yl)amino)-5-(trifluoromethyl)pyrimidin-4-yl)-2-methylthieno[2,3-d]pyrimidin-4(1H)-one], the pIC50 is below 6.30.

Take `CCS(=O)(=O)c1csc(-c2nc(Nc3cc4c(cc3Cl)CNCC4)ncc2C(F)(F)F)c1` [Example 51, 7-chloro-N-(4-(4-(ethylsulfonyl)thiophen-2-yl)-5-(trifluoromethyl)pyrimidin-2-yl)-1,2,3,4-tetrahydroisoquinolin-6-amine]: the pIC50 was at least 8.00.

On to `COCCS(=O)(=O)c1csc(-c2nc(Nc3cc4c(cc3Cl)CNCC4)ncc2C(F)(F)F)c1` [Example 52, 7-chloro-N-(4-(4-((2-methoxyethyl)sulfonyl)thiophen-2-yl)-5-(trifluoromethyl)pyrimidin-2-yl)-1,2,3,4-tetrahydroisoquinolin-6-amine], for which the pIC50 was at least 8.00.

Regarding `O=C1NCCNc2sc(-c3nc(Nc4cc5c(cc4Cl)CNCC5)ncc3C(F)(F)F)cc21` [Example 53, 7-(2-((7-chloro-1,2,3,4-tetrahydroisoquinolin-6-yl)amino)-5-(trifluoromethyl)pyrimidin-4-yl)-1,2,3,4-tetrahydro-5H-thieno[2,3-e][1,4]diazepin-5-one], the pIC50 was at least 8.00.

Take `O=S(=O)(CCN1CCOCC1)c1csc(-c2nc(Nc3cc4c(cc3Cl)CNCC4)ncc2C(F)(F)F)c1` [Example 54, 7-chloro-N-(4-(4-((2-morpholinoethyl)sulfonyl)thiophen-2-yl)-5-(trifluoromethyl)pyrimidin-2-yl)-1,2,3,4-tetrahydroisoquinolin-6-amine]: the pIC50 is 6.30 to 7.00.

Turning to `COCCOc1sc(-c2nc(Nc3cc4c(cc3Cl)CNCC4)ncc2C(F)(F)F)cc1C(N)=O` [Example 55, 5-(2-((7-chloro-1,2,3,4-tetrahydroisoquinolin-6-yl)amino)-5-(trifluoromethyl)pyrimidin-4-yl)-2-(2-methoxyethoxy)thiophene-3-carboxamide], the pIC50 is at least 8.00.

Turning to `COCCOc1sc(-c2nc(Nc3cc4c(cc3Cl)CNCC4)ncc2C(F)(F)F)cc1S(C)(=O)=O` [Example 56, 7-chloro-N-(4-(5-(2-methoxyethoxy)-4-(methylsulfonyl)thiophen-2-yl)-5-(trifluoromethyl)pyrimidin-2-yl)-1,2,3,4-tetrahydroisoquinolin-6-amine], the pIC50 is at least 8.00.

As for `COCCOc1sc(-c2nc(Nc3cc4c(cc3Cl)CN(C)CC4)ncc2C(F)(F)F)cc1S(C)(=O)=O` [Example 57, 7-chloro-N-(4-(5-(2-methoxyethoxy)-4-(methylsulfonyl)thiophen-2-yl)-5-(trifluoromethyl)pyrimidin-2-yl)-2-methyl-1,2,3,4-tetrahydroisoquinolin-6-amine], the pIC50 was at least 8.00.

Turning to `CS(=O)(=O)c1cc(-c2nc(Nc3cc4c(cc3Cl)CNCC4)ncc2C(F)(F)F)sc1C(=O)N1CCOCC1` [Example 58, (5-(2-((7-chloro-1,2,3,4-tetrahydroisoquinolin-6-yl)amino)-5-(trifluoromethyl)pyrimidin-4-yl)-3-(methylsulfonyl)thiophen-2-yl)(morpholino)methanone], the pIC50 is 6.30 to 7.00.

Take `CS(=O)(=O)c1cc(-c2nc(Nc3cc4c(cc3Cl)CNCC4)ncc2C(F)(F)F)sc1C(N)=O` [Example 59, 5-(2-((7-chloro-1,2,3,4-tetrahydroisoquinolin-6-yl)amino)-5-(trifluoromethyl)pyrimidin-4-yl)-3-(methylsulfonyl)thiophene-2-carboxamide]: the pIC50 is at least 8.00.

As to `O=S1(=O)CCCOc2sc(-c3nc(Nc4cc5c(cc4Cl)CNCC5)ncc3C(F)(F)F)cc21` [Example 60, 2-(2-((7-chloro-1,2,3,4-tetrahydroisoquinolin-6-yl)amino)-5-(trifluoromethyl)pyrimidin-4-yl)-6,7-dihydro-5H-thieno[2,3-b][1,4]oxathiepine 4,4-dioxide], the pIC50 was at least 8.00.
